The text below walks through data of patent US5198457A, “Treatment of hyperthyroidism with 1,3-dihydro-1[2-(2-thienyl)alkyl]-2H-imidazole-2-thiones” (Merrell Dow Pharmaceuticals Inc., priority 1992, dated 1993).

The nature of test [1]: Three month rat study, gavage: serum cholesterol. The test is classed as in vivo, Sprague-Dawley rats. Here is the method: (§1) Collectively, these findings are consistent with drug-induced inhibition of thyroid function and resulting morphological alterations due to compensatory stimulation of increased TSH due to decreased secretion of thyroid hormones.
(§2) For this study Sprague-Dawley rats were divided into groups of 33 males and 33 females and administered by gavage 0, 50 and 200 mg/kg/day of 1,3-dihydro-1-[2-(2-thienyl)ethyl]-2H-imidazole-2-thione in 0.5% aqueous methylcellulose for up to three months. Additional pharmacokinetic study of drug levels was performed by bleeding 3 males and 3 females from each group either 2 or 24 hours posdosing on treatment days 1, 45 and 87. Study parameters included daily observation of behavior; weekly observations of physical condition, food consumption and body weight; and terminal ophthalmoscopic evaluation, serum clinical chemistry, hematology, organ weights, and gross and microscopic tissue examinations.

A short description of test [2]: Two week rat study: clinical chemistry (cholesterol). The test is classed as in vivo, Sprague-Dawley rats. Here is the method: (§3) Sprague-Dawley rats were divided into groups of five males and five females and administered daily by gavage 0, 50, 100, 200, 300, 500, 700 and 1,000 mg/kg/day for two weeks under both fed and fasted conditions. Behavior of the rats was monitored daily while body weight, food consumption and clinical signs were measured weekly. At the termination of the study, rats were bled for clinical chemistry and hematology determinations. After bleeding, rats were sacrificed and necropsied in order that organs could be examined grossly, and tissue specimens were collected for subsequent microscopic examination.

For test [3], the system named is thyroid. Put plainly: Three month rat study, gavage: thyroid histology and thyroid weight. The test is classed as in vivo, Sprague-Dawley rats. Particulars: for Thyroid follicular cell hyperplasia (incidence), treatment: up to three months, gavage; for Thyroid weight, treatment / Thyroid weight, recovery: mean ± standard deviation; for Thyroid weight, recovery: one month recovery. Here is the method:
as §1, §2

In test [4] the test system is thyroid follicular epithelium. Put plainly: Two week rat study, oral gavage: thyroid findings. The format is in vivo, Sprague-Dawley rats. Here is the method: The activity of the compounds of Formula I is illustrated through their effects on thyroid function in the rat.
as §3

Test [5] concerns dopamine beta-hydroxylase. The conditions noted are these: relative to methimazole analogs with larger 1-alkyl substituents; Fuller et al. 1977; cited from earlier work.
Test [6] concerns thyroid. Particulars: Fuller et al. 1977; cited from earlier work.
[7] abbreviates: 200 mg/kg/day, female, P < 0.01 compared to controls.

With `S=c1[nH]ccn1CCc1cccs1` [1,3-Dihydro-1-[2-(2-thienyl)ethyl]-2H-imidazole-2-thione], the “Serum cholesterol, treatment” value in test [1] (50 mg/kg/day, female (control 71)) worked out at 88 mg/dL; in test [1] (50 mg/kg/day, male (control 63)), 81 mg/dL; in test [1] (200 mg/kg/day, female (control 71)), 105 mg/dL; in test [1] (200 mg/kg/day, male (control 63)), 97 mg/dL. The “Serum cholesterol, recovery” value in test [1] (50 mg/kg/day, female, one month recovery (control 66)) turned out to be 86 mg/dL; in test [1] (50 mg/kg/day, male, one month recovery (control 75)), 74 mg/dL; in test [1] (200 mg/kg/day, female, one month recovery (control 66)), 76 mg/dL; in test [1] (200 mg/kg/day, male, one month recovery (control 75)) it was 76 mg/dL. For the same compound, the “Cholesterol level, % of pretest values” in test [2] (females, doses >200 mg/kg/day) was “approximately 135%”; in test [2] (males, doses >500 mg/kg/day), “approximately 135%”. In addition, the “Thyroid follicular cell hyperplasia (incidence), treatment” value in the test on thyroid [3] (50 mg/kg/day, female) is reported as 7/10; in the test with thyroid [3] (50 mg/kg/day, male) it was 10/10; in the test on thyroid [3] (200 mg/kg/day, female), 10/10; with thyroid [3] (200 mg/kg/day, male), 10/10. Moreover, the “Thyroid weight, treatment” value in the test on thyroid [3] (50 mg/kg/day, female, P < 0.01 compared to controls) was “.03 ± .01 gm”; in the test with thyroid [3] (50 mg/kg/day, male, P < 0.01 compared to controls) it was “.04 ± .01 gm”; in the test on thyroid [3] (setting [7]), “.06 ± .03 gm”; in the test with thyroid [3] (200 mg/kg/day, male, P < 0.01 compared to controls) it was “.14 ± .08 gm”. Moreover, the “Thyroid follicular cell hyperplasia (incidence), recovery” value in the test with thyroid [3] (50 mg/kg/day, female, one month recovery from dosing) was 0/5; with thyroid [3] (50 mg/kg/day, male, one month recovery from dosing), 0/5; in the test with thyroid [3] (200 mg/kg/day, female, one month recovery from dosing) it was 8/10; in the test with thyroid [3] (200 mg/kg/day, male, one month recovery from dosing) it was 0/5. Besides, the “Thyroid weight, recovery” value in the test on thyroid [3] (50 mg/kg/day, female) is on record as “.02 ± .00 gm”; in the test with thyroid [3] (50 mg/kg/day, male), “.03 ± .01 gm”; with thyroid [3] (setting [7]), “.03 ± .01 gm”; in the test on thyroid [3] (200 mg/kg/day, male, P < 0.05 compared to controls), “.05 ± .01 gm”. Moreover, the “Reversibility of thyroid findings” value with thyroid [3] (one month recovery from dosing) was “nearly completely reversible”. In the test on thyroid [3] (single daily doses of 50 and 200 mg/kg/day), the “Thyroid effects, three month study” value was “profound thyroid effects characterized by thyroid follicular cell hyperplasia, increased thyroid weights and hypercholesteremia”. Further, the “Thyroid follicular epithelium findings, lower doses” value in test [4] (100-300 mg/kg/day males, 50-300 mg/kg/day females, two weeks) is recorded as “mainly hypertrophic with minimal colloid involution”. Further, the “Thyroid follicular cell findings, high doses” value in test [4] (>500 mg/kg/day, two weeks) was “diffuse hyperplasia, hypertrophy, increased mitotic FIGURES, and involution or total absence of luminal colloid”. Further, the “Onset of effect on thyroid follicular epithelium” value in test [4] (oral, 50 to 700 mg/kg/day) was “three to four”. Besides, in test [4] (oral, 50 to 700 mg/kg/day, two weeks), the “Effect on thyroid follicular epithelium” value was “striking effects on the thyroid follicular epithelium”. Further, the “Effect on thyroid gland at high doses” value in test [4] (rat, high doses) is “lesions in the thyroid gland and associated clinicopathological findings that indicate thyroid hormone synthesis is reduced or inhibited”.

On to `Sc1nccn1C1CCCCC1` [1-cyclohexyl-2-mercaptoimidazole (CHMI), 1-cyclohexyl-2-mercaptoimidazole], for which the DBH-inhibiting activity result in test [5] was “greatest DBH inhibition”. For the same compound, the Antithyroid activity entry in the test on thyroid [6] is on record as “only slight antithyroid activity”.

Regarding `Cn1ccnc1S` [methimazole, 1-methyl-2-mercaptoimidazole], the DBH-inhibiting activity result in test [5] is “less pronounced than that of methimazole analogs bearing larger 1-alkyl substituents”.
